The values below are quoted from earlier work in patent US8802148B2, “Microparticles and method for their production” (Alrise Biosystems GmbH, priority 2002, dated 2014).

Structures can show the parent of a compound that is named as a salt.

For this data set the following is noted: at 20-25° C.
Take `CCOC(C)=O` [ethyl acetate]: the “Solubility in water (w/w)” value is reported as 7.43%.
For the compound `CCOC=O` [ethyl formate], the “Solubility in water (w/w)” value is given as 8.4%.
`CC(=O)OC(C)C` [iIsopropyl acetate, isopropyl acetate]: the “Solubility in water (w/w)” value was 3.09%.
With `COC(C)=O` [methyl acetate], the “Solubility in water (w/w)” value is recorded as 22.8%.
Consider `CCCOC(C)=O` [propyl acetate], for which the “Solubility in water (w/w)” value is 1.67%.
With `CCCOC=O` [propyl formate], the “Solubility in water (w/w)” value is recorded as 2.82%.
